Reference: patent US10202376B2, “Heterocyclic compound” (Takeda Pharmaceutical Company Limited, priority 2014, dated 2019)

Tests used:
NMDA receptor [1] = settings: continuous intravenous administration; cited from earlier work
[2] = biological target: T1, Human GRIN1 and human GRIN2B expressing HEK293 cells (Homo sapiens, UniProt Q13224); assay: NR2B Ca2+ flux assay; assay type: cell-based; settings: 10 μM test compound, glutamic acid/glycine stimulated Fluo-4 fluorescence, FLIPR, read-out: inhibitory rate (@10 μM)
T1 construct: host or cells: HEK293
Protocol: Experimental Example 1 NR2B Ca^2+ Flux Assay
Human GRIN1 and human GRIN2B expressing HEK293 cells were purchased from ChanTest. The cells were cultured in a DMEM/F-12 (COSMO BIO, 10-092-CM) medium added with 10% FBS (fetal bovine serum, AusGene), 100 units/mL penicillin, 100 μg/mL streptomycin, 500 μg/mL neomycin, 100 μg/mL Zeocin, 5 μg/mL Blasticidin at 37° C., 5% CO2. The cells were detached from flask with trypsin the day before the assay, suspended in a seeding medium (DMEM (Invitrogen, 31053) added with 10% FBS, 100 units/mL penicillin, 100 μg/mL streptomycin) at 8×10^5 cells/mL, seeded by 25 μL per well in a 384-well plate (Falcon, 356663) at 20000 cells/well, and cultured overnight in an incubator. On the day of the assay, tetracycline (Wako Pure Chemical Industries, Ltd., 209-16561) was diluted with the seeding medium at 2 μg/mL, added at […] to the plate seeded with the cells, and cultured for 2 hr in an incubator. Thereafter, the medium was removed, and the cells were washed with 50 μL/well assay buffer (137 mM NaCl, 4 mM KCl, 1.8 mM CaCl2, 10 mM HEPES (pH 7.2), 10 mM Glucose, 0.1% BSA). Then, a loading buffer (assay buffer added with 2.5 uM Fluo-4AM, 2 mM Amaranth, 1 mM Tartrazine) was added at 25 μL/well, and loading was performed in the incubator for 30 min, and at room temperature for 15 min. A test compound (25 μL) was added, and the cells were stood for 15 min at room temperature. Using FLIPR (Molecular Devices), 25 μL of an assay buffer containing […], 30 μM glycine was added, and the fluorescence signal was measured every 3 seconds for 5 min. The inhibitory activity was calculated as a relative activity value that inhibits 100% of the cumulative value of the fluorescence value of a well added with a buffer free of glutamic acid, glycine, relative to the cumulative value of the fluorescence value of each well.

[3] = biological target: T2, NMDA receptor containing the NR2B subunit (Homo sapiens, UniProt Q05586+Q13224); settings: in vivo; cited from earlier work
[4] = biological target: T2, NMDA receptor containing the NR2B subunit; settings: continuous intravenous administration; cited from earlier work
[5] = biological target: NMDA receptor containing the NR2B subunit (Rattus norvegicus, UniProt P35439+Q00960); settings: rodents; cited from earlier work
NMDA receptor [6] = settings: in vivo; cited from earlier work

T1 sequence (Q13224 27-1484, other chains not shown): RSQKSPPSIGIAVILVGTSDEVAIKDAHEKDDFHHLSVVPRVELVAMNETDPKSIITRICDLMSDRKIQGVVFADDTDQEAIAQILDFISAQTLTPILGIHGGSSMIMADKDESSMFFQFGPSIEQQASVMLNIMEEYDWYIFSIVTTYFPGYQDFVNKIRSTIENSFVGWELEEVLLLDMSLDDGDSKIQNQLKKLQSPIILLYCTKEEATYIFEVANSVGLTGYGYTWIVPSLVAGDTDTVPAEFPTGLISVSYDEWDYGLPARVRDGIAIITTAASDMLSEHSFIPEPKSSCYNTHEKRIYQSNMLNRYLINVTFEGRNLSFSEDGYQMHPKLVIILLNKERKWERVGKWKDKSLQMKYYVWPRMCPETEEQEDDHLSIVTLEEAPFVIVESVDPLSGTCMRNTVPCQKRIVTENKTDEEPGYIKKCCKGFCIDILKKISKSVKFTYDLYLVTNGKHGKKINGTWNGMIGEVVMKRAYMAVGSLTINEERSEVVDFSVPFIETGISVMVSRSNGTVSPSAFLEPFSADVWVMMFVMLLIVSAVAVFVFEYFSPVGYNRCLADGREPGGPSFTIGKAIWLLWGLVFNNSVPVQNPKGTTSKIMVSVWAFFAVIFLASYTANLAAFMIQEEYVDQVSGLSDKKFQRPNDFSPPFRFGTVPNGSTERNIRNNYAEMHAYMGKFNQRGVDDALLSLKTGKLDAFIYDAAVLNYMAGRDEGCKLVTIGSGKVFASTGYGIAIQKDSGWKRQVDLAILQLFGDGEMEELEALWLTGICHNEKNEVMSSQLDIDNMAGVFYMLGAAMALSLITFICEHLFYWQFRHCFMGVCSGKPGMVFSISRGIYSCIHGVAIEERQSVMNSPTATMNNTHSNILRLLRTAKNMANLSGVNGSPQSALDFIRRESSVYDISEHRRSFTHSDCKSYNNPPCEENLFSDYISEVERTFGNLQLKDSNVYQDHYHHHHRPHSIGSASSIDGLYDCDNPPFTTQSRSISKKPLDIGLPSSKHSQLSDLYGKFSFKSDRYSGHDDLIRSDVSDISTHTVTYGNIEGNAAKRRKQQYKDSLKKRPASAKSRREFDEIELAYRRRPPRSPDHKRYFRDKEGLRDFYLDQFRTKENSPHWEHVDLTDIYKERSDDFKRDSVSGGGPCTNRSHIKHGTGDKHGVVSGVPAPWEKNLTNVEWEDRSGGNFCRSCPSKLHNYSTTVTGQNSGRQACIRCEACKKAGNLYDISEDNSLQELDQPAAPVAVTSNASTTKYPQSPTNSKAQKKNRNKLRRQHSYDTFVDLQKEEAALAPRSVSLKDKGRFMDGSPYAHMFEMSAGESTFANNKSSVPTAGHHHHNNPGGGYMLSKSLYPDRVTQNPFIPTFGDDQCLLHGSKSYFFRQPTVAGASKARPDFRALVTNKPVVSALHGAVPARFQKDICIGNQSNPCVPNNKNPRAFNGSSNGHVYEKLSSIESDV
NMDA receptor containing the NR2B subunit (Rattus norvegicus, UniProt P35439+Q00960), sequence (Q00960 27-1482, other chains not shown): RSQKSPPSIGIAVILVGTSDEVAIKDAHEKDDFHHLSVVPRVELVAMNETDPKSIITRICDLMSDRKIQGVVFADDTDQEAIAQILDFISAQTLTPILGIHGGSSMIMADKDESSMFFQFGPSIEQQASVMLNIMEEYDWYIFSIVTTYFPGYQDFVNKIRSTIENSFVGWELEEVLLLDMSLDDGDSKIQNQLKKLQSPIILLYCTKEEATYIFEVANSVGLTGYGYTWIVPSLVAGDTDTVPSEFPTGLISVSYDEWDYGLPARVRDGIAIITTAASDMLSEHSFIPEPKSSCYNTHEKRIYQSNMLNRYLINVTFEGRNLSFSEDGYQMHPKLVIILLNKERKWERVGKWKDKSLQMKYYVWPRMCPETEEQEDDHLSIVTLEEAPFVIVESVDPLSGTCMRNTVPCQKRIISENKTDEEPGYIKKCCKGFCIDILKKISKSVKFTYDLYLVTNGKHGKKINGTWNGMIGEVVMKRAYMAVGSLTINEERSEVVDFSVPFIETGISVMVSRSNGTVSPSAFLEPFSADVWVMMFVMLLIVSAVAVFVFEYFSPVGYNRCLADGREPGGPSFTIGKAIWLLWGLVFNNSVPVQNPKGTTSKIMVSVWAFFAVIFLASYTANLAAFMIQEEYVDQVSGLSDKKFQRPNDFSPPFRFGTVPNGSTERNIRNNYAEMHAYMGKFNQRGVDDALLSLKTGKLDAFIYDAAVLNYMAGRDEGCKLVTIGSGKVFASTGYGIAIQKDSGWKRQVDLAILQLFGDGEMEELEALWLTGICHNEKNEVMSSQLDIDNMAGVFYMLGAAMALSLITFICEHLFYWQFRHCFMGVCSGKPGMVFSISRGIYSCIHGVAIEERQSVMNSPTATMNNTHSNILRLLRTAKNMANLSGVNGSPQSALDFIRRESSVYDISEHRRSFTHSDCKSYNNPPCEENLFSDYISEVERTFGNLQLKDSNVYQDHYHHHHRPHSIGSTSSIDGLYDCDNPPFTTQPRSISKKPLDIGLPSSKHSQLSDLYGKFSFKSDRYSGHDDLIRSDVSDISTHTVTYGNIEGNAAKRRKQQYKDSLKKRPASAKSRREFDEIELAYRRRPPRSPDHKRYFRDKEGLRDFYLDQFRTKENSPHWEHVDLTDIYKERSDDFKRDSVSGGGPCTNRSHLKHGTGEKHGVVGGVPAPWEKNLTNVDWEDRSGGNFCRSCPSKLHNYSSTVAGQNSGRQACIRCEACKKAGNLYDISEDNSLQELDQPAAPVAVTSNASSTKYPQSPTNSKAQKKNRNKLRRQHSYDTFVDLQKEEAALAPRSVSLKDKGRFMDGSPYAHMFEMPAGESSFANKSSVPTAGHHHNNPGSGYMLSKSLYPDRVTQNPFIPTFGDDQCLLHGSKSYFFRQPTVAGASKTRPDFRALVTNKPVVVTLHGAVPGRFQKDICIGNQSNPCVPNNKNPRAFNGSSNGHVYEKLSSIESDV
T2 sequence (Q13224 27-1484, other chains not shown): as the sequence (Q13224 27-1484, other chains not shown) above

Compound	inhibition at 10 µM [2]	other results
CNC1(c2ccccc2Cl)CCCCC1=O (centres unmarked) [ketamine]		depression symptom accompanying major depression and bipolar disorder (NMDA receptor [1]): improves depression symptom accompanying major depression and bipolar disorder rapidly and in a sustained manner
O=C(Cc1cc(F)cc2nccn12)Nc1ccc(OC(F)(F)F)cc1 [Example 86, 2-(7-fluoroimidazo[1,2-a]pyridin-5-yl)-N-(4-(trifluoromethoxy)-phenyl)acetamide]	93%	
CCc1ccc2nccn2c1CC(=O)Nc1ccc(C(F)(F)F)cc1 [Example 81, 2-(6-ethylimidazo[1,2-a]pyridin-5-yl)-N-(4-(trifluoromethyl)phenyl)-acetamide]	95%	
O=C(Cc1c(Cl)ccc2nccn12)Nc1ccc(OC(F)(F)F)cc1 [Example 91, 2-(6-chloroimidazo[1,2-a]pyridin-5-yl)-N-(4-(trifluoromethoxy)-phenyl)acetamide]	91%	
Cc1cn2c(CC(=O)Nc3ccc(C(F)(F)F)cc3)cccc2n1 [Example 23, 2-(2-methylimidazo[1,2-a]pyridin-5-yl)-N-(4-(trifluoromethyl)phenyl)-acetamide]	81%	
O=C(Cc1cccc2nccn12)Nc1cnc(C(F)(F)F)nc1 [Example 47, 2-(imidazo[1,2-a]pyridin-5-yl)-N-(2-(trifluoromethyl)-pyrimidin-5-yl)acetamide]	52%	
O=C(Cc1c(F)ccc2nccn12)Nc1ccc(C(F)(F)F)cc1 [Example 73, 2-(6-fluoroimidazo[1,2-a]pyridin-5-yl)-N-(4-(trifluoromethyl)phenyl)-acetamide]	73%	
O=C(Cc1cccc2nccn12)Nc1ccc(I)cc1 [Example 16, 2-(imidazo[1,2-a]pyridin-5-yl)-N-(4-iodophenyl)acetamide]	91%	
Cc1ccc(NC(=O)Cc2cccc3nccn23)cc1 [Example 35, 2-(imidazo[1,2-a]pyridin-5-yl)-N-(4-methylphenyl)acetamide]	90%	
CCCc1ccc(NC(=O)Cc2cccc3nccn23)cc1 [Example 10, 2-(imidazo[1,2-a]pyridin-5-yl)-N-(4-propylphenyl)acetamide]	91%	
Cc1cnc2cccc(CC(=O)Nc3ccc(C(F)(F)F)cc3)n12 [Example 20, 2-(3-methylimidazo[1,2-a]pyridin-5-yl)-N-(4-(trifluoromethyl)phenyl)acetamide]	74%	
CCc1ccc(NC(=O)Cc2cccc3nccn23)nc1 [Example 95, N-(5-ethylpyridin-2-yl)-2-(imidazo[1,2-a]pyridin-5-yl)acetamide]	76%	
O=C(Cc1cccc2nccn12)Nc1ccc(C(F)(F)F)cn1 [Example 36, 2-(imidazo[1,2-a]pyridin-5-yl)-N-(5-(trifluoromethyl)pyridin-2-yl)acetamide]	80%	
CC(C(O)c1ccc(O)cc1)N1CCC(Cc2ccccc2)CC1 (centres unmarked) [Ifenprodil]		pain sense threshold [3]: pain sense threshold increases
O=C(Cc1cccc2nccn12)Nc1ccc(Cl)cc1 [Example 33, N-(4-chlorophenyl)-2-(imidazo[1,2-a]pyridin-5-yl)acetamide]	92%	
O=C(Cc1ccc(F)c2nccn12)Nc1ccc(OC(F)(F)F)cc1 [Example 94, 2-(8-fluoroimidazo[1,2-a]pyridin-5-yl)-N-(4-(trifluoromethoxy)-phenyl)acetamide]	85%	
C[C@@H]([C@@H](O)c1ccc(O)cc1)N1CCC(O)(c2ccccc2)CC1 [CP-101, 606]		treatment resistant-depression symptom [4]: significantly improves treatment resistant-depression symptom; number of occurrence and depth of cortical spreading depression [5]: suppress the number of occurrence and the depth of cortical spreading depression

Compound	inhibition at 10 µM [2]	other results
O=C(Cc1cccc2nccn12)Nc1ccc(C(F)F)cc1 [Example 69, N-(4-(difluoromethyl)phenyl)-2-(imidazo[1,2-a]pyridin-5-yl)acetamide]	87%	
O=C(Cc1cccc2nccn12)Nc1ccc(OC(F)F)c(F)c1 [Example 17, N-(4-(difluoromethoxy)-3-fluorophenyl)-2-(imidazo[1,2-a]pyridin-5-yl)acetamide]	93%	
O=C(Cc1cccc2nccn12)Nc1ccc(Br)cc1 [Example 88, N-(4-bromophenyl)-2-(imidazo[1,2-a]pyridin-5-yl)acetamide]	91%	
COc1ccc(NC(=O)Cc2cccc3nccn23)cc1F [Example 8, N-(3-fluoro-4-methoxyphenyl)-2-(imidazo[1,2-a]pyridin-5-yl)acetamide]	92%	
COc1ccc(NC(=O)Cc2cccc3nccn23)cc1 [Example 2, 2-(imidazo[1,2-a]pyridin-5-yl)-N-(4-methoxyphenyl)acetamide]	91%	
COc1c(F)cc(NC(=O)Cc2cccc3nccn23)cc1F [Example 19, N-(3,5-difluoro-4-methoxyphenyl)-2-(imidazo[1,2-a]pyridin-5-yl)acetamide]	91%	
O=C(Cc1cc(F)cc2nccn12)Nc1ccc(C(F)(F)F)cc1 [Example 90, 2-(7-fluoroimidazo[1,2-a]pyridin-5-yl)-N-(4-(trifluoromethyl)phenyl)-acetamide]	88%	
O=C(Cc1cccc2nccn12)Nc1ccc(C(F)(F)F)nc1 [Example 44, 2-(imidazo[1,2-a]pyridin-5-yl)-N-(6-(trifluoromethyl)pyridin-3-yl)acetamide]	71%	
C[C@@H](CN1CCC(Cc2ccccc2)CC1)[C@@H](O)c1ccc(O)cc1 [Ro25-6981]		number of occurrence and depth of cortical spreading depression [5]: suppress the number of occurrence and the depth of cortical spreading depression
O=C(Cc1cccc2nccn12)Nc1ccc(OCC(F)(F)F)cc1 [Example 38, 2-(imidazo[1,2-a]pyridin-5-yl)-N-(4-(2,2,2-trifluoroethoxy)phenyl)-acetamide]	82%	
Cc1ccc2nccn2c1CC(=O)Nc1ccc(C(F)(F)F)cc1 [Example 87, 2-(6-methylimidazo[1,2-a]pyridin-5-yl)-N-(4-(trifluoromethyl)phenyl)-acetamide]	93%	
O=C(Cc1cccc2nccn12)Nc1ccccc1 [Example 26, 2-(imidazo[1,2-a]pyridin-5-yl)-N-phenylacetamide]	53%	
CC12CC3CC(C)(C1)CC(N)(C3)C2 [memantine]		peripheral symptoms of dementia (NMDA receptor [6]): partially improves peripheral symptoms of dementia
O=C(Cc1cccc2nccn12)Nc1ccc(F)cc1 [Example 32, N-(4-fluorophenyl)-2-(imidazo[1,2-a]pyridin-5-yl)acetamide]	83%	
O=C(Cc1cccc2nccn12)Nc1ccc(CC(F)F)cc1 [Example 13, N-(4-(2,2-difluoroethyl)phenyl)-2-(imidazo[1,2-a]pyridin-5-yl)acetamide]	88%	
CCc1ccc(NC(=O)Cc2cccc3nccn23)cc1 [Example 3, N-(4-ethylphenyl)-2-(imidazo[1,2-a]pyridin-5-yl)acetamide]	94%	
CCOc1ccc(NC(=O)Cc2cccc3nccn23)cc1F [Example 18, N-(4-ethoxy-3-fluorophenyl)-2-(imidazo[1,2-a]pyridin-5-yl)acetamide]	91%	
